According to the supplement of paper PMC10627819:

Assays:
S. aureus Newman = test: Bliss interaction score (quartile over a dose matrix) (fitness difference); higher = more antagonism (negative = synergy)
Outline: (§1)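 The Bliss score is observed minus expected fitness, where expected fitness is the product of the single-drug fitness values inferred from the combination data. Fitness is the OD595 at the onset of stationary phase over the plate's robust no-drug mean, capped at 1. Scores are summarised by quartiles over technical, biological and donor/recipient replicates.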

S. aureus DSM 20231 = test: as above
Outline: as §1

B. subtilis 168 [1] = test: as above
Outline: as §1

S. pneumoniae D39V [2] = test: as above
Outline: as §1

B. subtilis 168 [3] = test: fitness (endpoint OD595 vs no drug) (fraction); higher = more growth
Outline: (§2)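 With the first reading as background, OD595 was measured every 30 min for 14 h in 384-well plates kept at 37 °C and inoculated at OD595 0.01. TSB, LB Lennox or CY was the medium. Fitness is the optical density at the transition into stationary phase divided by the robust mean of no-drug control wells, with a cap of 1.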

S. pneumoniae D39V [4] = test: as above
Outline: as §2
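Throughout, for Bliss interaction score (quartile over a dose matrix): first quartile when negative (synergy) and third quartile when positive (antagonism).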
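Throughout, for fitness (endpoint OD595 vs no drug): OD595 on entry to stationary phase over no-drug wells; at most 1.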

CC1=C(C(=O)O)N2C(=O)[C@@H](NC(=O)[C@H](N)c3ccccc3)[C@H]2SC1 [Cephalexin] + CO[C@@H]1[C@@H](OC(N)=O)[C@@H](O)[C@H](Oc2ccc3c(O)c(NC(=O)c4ccc(O)c(CC=C(C)C)c4)c(=O)oc3c2C)OC1(C)C [Novobiocin]
Conditions | Bliss interaction score
B. subtilis 168 [1] | 0.0738
S. aureus DSM 20231 | 0.0648
S. aureus Newman | 0.0794
S. pneumoniae D39V [2] | -0.0986

fitness, B. subtilis 168 [3]
Conditions | first compound 0.125 µg/mL | first compound 0.25 µg/mL | first compound 0.5 µg/mL
partner 0.0125 µg/mL | 0.97 | 0.978 | 0.98
partner 0.025 µg/mL | 0.918 | 0.936 | 0.93
partner 0.05 µg/mL | 0.984 | 0.972 | 0.97

fitness, B. subtilis 168 [3], one replicate
Conditions | first compound 0.25 µg/mL | first compound 0.5 µg/mL | first compound 1 µg/mL
partner 0.125 µg/mL | 0.95 | 0.839 | 0.946
partner 0.25 µg/mL | 0.857 | 0.866 | 0.926
partner 0.5 µg/mL | 0.603 | 0.49 | 0.593

Clc1ccc(COC(Cn2ccnc2)c2ccc(Cl)cc2Cl)c(Cl)c1 (stereo not given) [Miconazole] + CN[C@@H]1[C@H](O)[C@H](NC)[C@H]2O[C@@]3(O)C(=O)C[C@@H](C)O[C@H]3O[C@@H]2[C@H]1O [Spectinomycin]
Conditions | Bliss interaction score
B. subtilis 168 [1] | 0.0664
S. aureus DSM 20231 | -0.0228
S. aureus Newman | 0.0708
S. pneumoniae D39V [2] | 0.09

fitness, S. pneumoniae D39V [4]
Conditions | first compound 1.073 µg/mL | first compound 2.145 µg/mL | first compound 4.29 µg/mL
partner 4 µg/mL | ≥ 1 | ≥ 1 | 0.88
partner 8 µg/mL | 0.966 | 0.995 | 0.961
partner 16 µg/mL | 0.942 | 0.963 | 0.893

fitness, S. pneumoniae D39V [4], one replicate
Conditions | first compound 1.25 µg/mL | first compound 2.5 µg/mL | first compound 5 µg/mL
partner 4 µg/mL | 0.963 | 0.95 | 0.985
partner 8 µg/mL | 0.891 | 0.879 | 0.906

Clc1ccc(COC(Cn2ccnc2)c2ccc(Cl)cc2Cl)c(Cl)c1 (stereo not given) [Miconazole] + CN[C@@H]1[C@H](O[C@H]2[C@H](O[C@H]3[C@H](O)[C@@H](O)[C@H](N=C(N)N)[C@@H](O)[C@@H]3N=C(N)N)O[C@@H](C)[C@]2(O)C=O)O[C@@H](CO)[C@H](O)[C@H]1O [Streptomycin]
Conditions | Bliss interaction score
B. subtilis 168 [1] | 0.0605
S. aureus DSM 20231 | 0.0476
S. aureus Newman | 0.0487
S. pneumoniae D39V [2] | 0.0827

fitness, S. pneumoniae D39V [4]
Conditions | first compound 1.073 µg/mL | first compound 1.25 µg/mL | first compound 2.145 µg/mL | first compound 2.5 µg/mL | first compound 4.29 µg/mL | first compound 5 µg/mL
partner 2 µg/mL | 0.978 | – | 0.977 | – | 0.936 | –
partner 4 µg/mL | 0.988 | 0.909 | 0.988 | 0.904 | 0.946 | 0.912
partner 8 µg/mL | ≥ 1 | 0.86 | ≥ 1 | 0.832 | 0.932 | 0.86

fitness, S. pneumoniae D39V [4], one replicate
Conditions | first compound 1.25 µg/mL | first compound 2.5 µg/mL | first compound 5 µg/mL
partner 2 µg/mL | 0.922 | 0.964 | 0.977
partner 16 µg/mL | 0.712 | 0.632 | 0.679

Clc1ccc(COC(Cn2ccnc2)c2ccc(Cl)cc2Cl)c(Cl)c1 (stereo not given) [Miconazole] + CN[C@H](CC(C)C)C(=O)N[C@H]1C(=O)N[C@@H](CC(N)=O)C(=O)N[C@H]2C(=O)N[C@H]3C(=O)N[C@H](C(=O)N[C@H](C(=O)O)c4cc(O)cc(O)c4-c4cc3ccc4O)[C@H](O)c3ccc(c(Cl)c3)Oc3cc2cc(c3O[C@@H]2O[C@H](CO)[C@@H](O)[C@H](O)[C@H]2O[C@H]2C[C@](C)(N)[C@H](O)[C@H](C)O2)Oc2ccc(cc2Cl)[C@H]1O [Vancomycin]
Conditions | Bliss interaction score
B. subtilis 168 [1] | 0.0343
S. aureus DSM 20231 | 0.0309
S. aureus Newman | 0.0654
S. pneumoniae D39V [2] | 0.154

fitness, S. pneumoniae D39V [4]
Conditions | first compound 1.073 µg/mL | first compound 1.25 µg/mL | first compound 2.145 µg/mL | first compound 2.5 µg/mL | first compound 4.29 µg/mL | first compound 5 µg/mL
partner 0.03125 µg/mL | – | 0.993 | – | ≥ 1 | – | 0.966
partner 0.0625 µg/mL | – | 0.909 | – | 0.923 | – | 0.913
partner 0.125 µg/mL | 0.884 | 0.759 | 0.851 | 0.81 | 0.84 | 0.731
partner 0.5 µg/mL | – | – | – | – | 0.415 | –

Clc1ccc(COC(Cn2ccnc2)c2ccc(Cl)cc2Cl)c(Cl)c1 (stereo not given) [Miconazole] + CO[C@H]1/C=C/O[C@@]2(C)Oc3c(C)c(O)c4c(O)c(c(/C=N/N5CCN(C)CC5)c(O)c4c3C2=O)NC(=O)/C(C)=C\C=C\[C@H](C)[C@H](O)[C@@H](C)[C@@H](O)[C@@H](C)[C@H](OC(C)=O)[C@@H]1C [Rifampicin]
Conditions | Bliss interaction score
B. subtilis 168 [1] | 0.0476
S. aureus DSM 20231 | 0.035
S. aureus Newman | 0.0801
S. pneumoniae D39V [2] | 0.169

fitness, S. pneumoniae D39V [4]
Conditions | first compound 1.073 µg/mL | first compound 1.25 µg/mL | first compound 2.145 µg/mL | first compound 2.5 µg/mL | first compound 4.29 µg/mL | first compound 5 µg/mL
partner 0.05 µg/mL | 0.974 | 0.774 | 1 | 0.806 | 0.998 | 0.779
partner 0.1 µg/mL | – | 0.411 | – | 0.41 | 0.776 | –
partner 0.2 µg/mL | 0.363 | – | 0.37 | – | 0.477 | –

fitness, S. pneumoniae D39V [4], one replicate
Conditions | first compound 1.25 µg/mL | first compound 2.5 µg/mL | first compound 5 µg/mL
partner 0.025 µg/mL | 0.856 | 0.861 | 0.853
partner 0.2 µg/mL | 0 | 0 | 0
